The text below walks through data of US8507464B2, “Phosphoramidate alkylator prodrugs” (Threshold Pharmaceuticals, Inc., priority 2005, dated 2013).

Structures are written as SMILES. Where two headings read alike, the source gives them in different places. Bounds are passed on as bounds.

One series deals with spheroids. As to the kind of experiment: Spheroid combination with cisplatin or daunorubicin, clonogenic survival. Type of series: cell-based, human. The conditions noted are these: Homo sapiens, 2 h exposure. The protocol:
The phosphoramidate alkylator prodrug was combined simultaneously with cisplatin or daunorubicin and the spreroids exposed for 2 h to the combination, followed by measurement of clonogenic survival.

The subject of series [1] is NCI H460 xenograft. As to the kind of experiment: NCI H460 non small cell lung carcinoma xenograft mouse model (Example 48). The class given is in vivo. The conditions noted are these: day 29, vs vehicle. On the procedure: Female CB17/SCID mice (purchased from Charles River, Cambridge, Mass.), 7-8 weeks of age, were allowed to acclimatize for at least three days, and handled under pathogen-free conditions. Human […] cell line NCI H460 was obtained from the American Type Culture Collection. The cell lines were cultured and harvested according to the procedure described in Example 47 and inoculated at 1×10^6 cells/animal in the peritoneal subcutaneous space. When the tumors grew to an average volume of 100 mm^3 (day 8), […], as tabulated in the table below: Compound 25 (2.5 mg/ml in 10% PEG; administration route—i.p.) and Taxol (1 mg/ml in 5% EtOH, 5% Cremophor and 90% saline; administration—i.v. 2 h after administration of Compound 25). The body weight and tumor volumes were measured as described in Example 47 above.
Results are presented in Table X2 based on tumor volume measurement on day 29 when vehicle treated mice had reached a volume of 946 mm^3. Groups of 5 mice receiving saline or no treatment were added in order to indicate any vehicle effects but are not used for comparisons in this analysis.

Another series has as its system HT29 cells. In words: Clonogenic assay - oxygen dependence. The following applies: Homo sapiens.
The next series concerns PC3 cells. In words: Clonogenic assay - oxygen dependence. The following applies: Homo sapiens.
The test system of series [2] is NCI H460 xenograft. In words: H460 xenograft mouse model with CDDP (Example 51). The class given is in vivo. The following applies: 50 mg/kg daily or 100 mg/kg every three days, saline formulation. The protocol: Female CB17/SCID mice (purchased from Charles River, Cambridge, Mass.), 7-8 weeks of age, were allowed to acclimatize for at least three days, and handled under pathogen-free conditions. Human non-small cell lung carcinoma cell line NCI H460 was obtained from the American Type Culture Collection. The cell lines were cultured and harvested as described in Example 47 above, and inoculated at 3×10^6 cells/animal in the peritoneal subcutaneous space. When the tumors grew to an average volume of 100 mm^3, treatment was initiated in which groups of 10 mice received vehicle (Group 1), CDDP at 3 or 6 mg/kg (Groups 2 and 3, respectively, IV one time), Compound 25 at 50 mg/kg in saline 5 times per week for two weeks (Group 4), Compound 25 at 100 mg/kg every three days for 5 times (Group 5) or the combination of each dose of Compound 25 with either 3 or 6 mg/kg of CDDP (Groups 6 and 7, respectively). Results for groups receiving 50 mg/kg of Compound 25 are illustrated in the FIG. 1.

Series [3] has as its system rat (RLM) liver microsomal proteins. In words: Metabolic stability in liver microsomal protein. The class given is in vitro ADME. The following applies: 5 μM. (In general: Liver microsomes are a subcellular fraction often used to study metabolism.)
Another series concerns HCT116 cells. In words: Multilayered cell culture (MCC) assay, inhibition of BrdU incorporation. The class given is cell-based. The following applies: for IC50: Homo sapiens. On the procedure: MCCs were incubated with oxygenated media (20% O2 & 5% O2) or hypoxic media (approximately 0% O2) and the test compound was exposed from one side (exposed surface, normoxic side) while the other side was temporarily closed off (far side, hypoxic side). When MCC's are incubated in media at 20% O2 or 5% O2 a gradient in oxygen develops from the surface exposed to the media towards the far surface of the culture. The furthest 50 μm of tissue becomes depleted of oxygen. The extent of O2 depletion is greater with 5% than the 20% O2 gassed media; incubation with 5% O2 reflects the in vivo situation most closely. Incubating MCCs with media at 0% O2 models perfusion limited hypoxia, where tumor blood vessels become completely depleted of oxygen and test compound must penetrate extensive distances to reach all cells. This situation therefore poses a greater barrier to drug penetration, if binding of activated drug acts to limit its penetration.
MCC based experiments were carried out with media gassed with 0, 5 or 20% O2 for 45 minutes prior to and during incubation with the test compound. HCT116 cells were grown to a thickness of 150 μm on a solid support and one side of the culture was clamped off to develop diffusion limited hypoxia. […] The cultures were incubated for a second hour in fresh media at 20% O2 and removed from the apparatus and returned to a normal growth chamber, where media flows over both sides of the MCC. Cultures were incubated for 24 hours prior to BrdUrd labeling and subsequent cryosectioning. BrdUrd labeling on the exposed and far sides of the MCC were analyzed using immunohistochemical staining, microscope imaging and computer image analysis to assess the effect of Compound 25 on cell proliferation.
A general note: Dividing cells build labelled thymidine or BrdU into new DNA.

The subject of the next series is HT29. As to the kind of experiment: Clonogenic assay, hypoxia vs normoxia (Table 1B). The following applies: Homo sapiens, HT-29, read-out: HT29 C H (clonogenic IC90, hypoxia).
A further series deals with human H460 cells. As to the kind of experiment: Clonogenic survival assay, hypoxia vs normoxia (Table 1A). The conditions noted are these: for IC90: Homo sapiens.

A word on the IC90: it is the concentration needed for an effect of 90%. For the compound `Cn1c(COP(=O)(NCCBr)NCCBr)cnc1[N+](=O)[O-]` [Compound 25], the IC50 with spheroids (read-out: IC50 (μM), spheroids, cisplatin combination experiment) was 12 µM; with spheroids (read-out: IC50 (μM), spheroids, daunorubicin combination experiment), 9 µM; in the series with HCT116 cells (HCT-116, read-out: IC50 (BrdU), Hypoxic side, 5% O2) it was 0.7 µM; with HCT116 cells (HCT-116, read-out: IC50 (BrdU), Hypoxic side, 20% O2) it was 2.6 µM; in the series on HCT116 cells (HCT-116, read-out: IC50 (BrdU), Normoxic side, 5% O2) it was 8 µM; in the series on HCT116 cells (HCT-116, read-out: IC50 (BrdU), Normoxic side, 20% O2), more than 10 µM. Moreover, the IC50 in the series on HCT116 cells (HCT-116, read-out: IC50 (inhibit BrdU incorporation by 50%), Hypoxic side, 0% O2) is approximately 1.1 µM; with HCT116 cells (HCT-116, read-out: IC50 (BrdU), Normoxic side, 0% O2), approximately 1.7 µM. Also, the “% Inhibition vs Group 2” value in the series with NCI H460 xenograft [1] (Group 3: Compound 25 25 mg/kg (q1d × 5)/week × 2 weeks) amounted to 50.1%; in the series with NCI H460 xenograft [1] (Group 4: Compound 25 50 mg/kg (q2d × 3)/week × 2 weeks), 52%; with NCI H460 xenograft [1] (Group 5: Compound 25 100 mg/kg (q7d × 1)/week × 2 weeks), 46.7%. In addition, the IC90 with HT29 cells (HT-29, read-out: IC90 HT29 0.6% O2) came to 3 µM; in the series on HT29 cells (HT-29, read-out: IC90 HT29 Air), 40 µM; with HT29 cells (HT-29, read-out: IC90 HT29 N2), 0.2 µM; with PC3 cells (PC-3, read-out: IC90 PC3 Air) it was 50 µM; in the series on PC3 cells (PC-3, read-out: IC90 PC3 N2), 0.3 µM. For the same compound, the “tumor volume and tumor growth delay” value in the series with NCI H460 xenograft [2] is “significant dose related decrease in tumor volume and increase in tumor growth delay”. Besides, the “Metabolic stability (% at 30 min) RLM” value worked out at 84% in series [3] (Table 1, first study) and 137% in series [3] (Table 2A, second study). In addition, the “fold reduction in exposure to the hypoxic side under 0% O2 relative to 5% O2” value with HCT116 cells (0% O2 vs 5% O2) is recorded as “Approximately 3 fold”. In the series with HCT116 cells (5% O2), the “fold more effective at inhibiting BrdU incorporation on the hypoxic side compared to the normoxic side” value is listed as 10 fold. The “fold less compound required on the far (hypoxic) side compared to the exposed (normoxic) side” value with HCT116 cells (20% O2) turned out to be 5 fold.
As for `Cn1c(COP(=O)(NCCCl)NCCCl)cnc1[N+](=O)[O-]` [Compound 36], the MTD in the series “in vivo” is 400 mg/kg. The IC90 in the series with HT29 was 3 µM; in the series on human H460 cells (NCI-H460, read-out: Hypoxia C (clonogenic IC90)), 0.2 µM; in the series with human H460 cells (NCI-H460, read-out: Normoxia C (clonogenic IC90)), more than 100 µM. For the same compound, the “HCR C” value in the series with human H460 cells (ratio of IC90 in normoxia and hypoxia) is more than 500.
